Reference: patent US20070117743A1, “New antitumoral compounds” (priority 2003, published 2007)
Where a SMILES comes first, the peptide text is derived from it. Bridges are numbered along the chain shown (N, C = ends). [ ]: non-standard residue; d: D form. The star is where a group is joined. d(aIle) = CC[C@H](C)[C@@H](N)C(=O)O; d(aThr) = C[C@@H](O)[C@@H](N)C(=O)O; Hexanoyl(5-Me) = CC(C)CCCC(=O)*; Orn = NCCC[C@H](N)C(=O)O; Dhb = C/C=C(\N)C(=O)O

Assays:
Assay type in all cases: cell-based, human
[1] = system: A-549; test: SRB colorimetric assay of cell growth and viability, A-549; details: 48 hours exposure; for GI50: read-out: GI50 A-549; for CC50: read-out: LC50 A-549
[2] = system: SK-MEL-28; test: SRB colorimetric assay of cell growth and viability, SK-MEL-28; details: 48 hours exposure; for CC50: read-out: LC50 MEL-28
[3] = system: HT-29; test: SRB colorimetric assay of cell growth and viability, HT-29; details: 48 hours exposure; for GI50: read-out: GI50 HT-29; for CC50: read-out: LC50 HT-29
[4] = system: LoVo; test: SRB colorimetric assay of cell growth and viability, LoVo; details: 48 hours exposure; for CC50: read-out: LC50 LOVO
[5] = system: LoVo-Dox; test: SRB colorimetric assay of cell growth and viability, LoVo-Dox; details: 48 hours exposure; for CC50: read-out: LC50 LOVO-DOX
Procedure, shortened: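 First, 5×10^3 cells per well attach for 18 hours in RPMI 1640 with 10% FBS at 37° C and 5% CO2. Next, samples spanning 10 to 10^−8 μg/mL are added for 48 hours. Finally, cells are fixed with TCA, stained with SRB for 10 minutes and read at 490 nm.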

[6] = system: DU-145; test: SRB colorimetric assay of cell growth and viability, DU-145; details: 48 hours exposure
[7] = system: LNCaP; test: SRB colorimetric assay of cell growth and viability, LNCaP; details: 48 hours exposure; for GI50: read-out: GI50 LN-caP; for CC50: read-out: LC50 LN-caP
[8] = system: SK-BR-3; test: SRB colorimetric assay of cell growth and viability, SK-BR-3; details: 48 hours exposure
[9] = system: IGROV-1; test: SRB colorimetric assay of cell growth and viability, IGROV-1; details: 48 hours exposure
[10] = system: IGROV-ET; test: SRB colorimetric assay of cell growth and viability, IGROV-ET; details: 48 hours exposure; for CC50: read-out: LC50 IGROV-ET
[11] = system: HeLa; test: SRB colorimetric assay of cell growth and viability, HeLa; details: 48 hours exposure; for CC50: read-out: LC50 HELA
[12] = system: HeLa-APL; test: SRB colorimetric assay of cell growth and viability, HeLa-APL; details: 48 hours exposure; for CC50: read-out: LC50 HELA-APL
[13] = system: K-562; test: SRB colorimetric assay of cell growth and viability, K-562; details: 48 hours exposure; for CC50: read-out: LC50 K-562
[14] = system: PANC-1; test: SRB colorimetric assay of cell growth and viability, PANC-1; details: 48 hours exposure; for CC50: read-out: LC50 PANC-1

## C/C=C1\NC(=O)[C@H](Cc2ccccc2)NC(=O)[C@@H](C(C)C)NC(=O)[C@@H](C(C)C)NC(=O)[C@H](NC(=O)[C@H](NC(=O)[C@H](CCCN)NC(=O)[C@H]2CCCN2C(=O)[C@H](NC(=O)[C@@H](NC(=O)[C@@H](NC(=O)[C@H](NC(=O)CCCC(C)C)C(C)C)[C@@H](C)O)C(C)C)C(C)C)C(C)C)[C@@H](C)OC(=O)[C@H](C(C)C)NC1=O [Compound 12, [D-Val^5, D-Val^7]-KF] ({Hexanoyl(5-Me)}-[dV]TV[dV][dP][Orn][dV][d(aThr)][dV][dV]F[Dhb]V; ester 8-C)
[1]
  TGI A-549: 6.68E−06 Molar
  GI50: 2.17 µM
  CC50: 6.9 µM
[2]
  GI50: 1.68 µM
  TGI MEL-28: 3.12E−06 Molar
  CC50: 5.78 µM
[3]
  TGI HT-29: 2.51E−06 Molar
  GI50: 1.29 µM
  CC50: 4.88 µM
[4]
  GI50: 1.26 µM
  TGI LOVO: 2.28E−06 Molar
  CC50: 4.13 µM
[5]
  GI50: 0.952 µM
  TGI LOVO-DOX: 1.97E−06 Molar
  CC50: 4.08 µM
[6]
  GI50: 1.61 µM
  LC50 (concentration causing 50% net cell kill): 4.92 µM
  TGI DU-145: 2.82E−06 Molar
[7]
  TGI LN-caP: 3.79E−08 Molar
  GI50: 2.8 µM
  CC50: 5.14 µM
[8]
  GI50: 1.74 µM
  LC50: 5.38 µM
  TGI SK-BR-3: 3.06E−06 Molar
[9]
  GI50: 1.85 µM
  LC50 (concentration causing 50% net cell killing): 4.93 µM
  TGI IGROV: 3.01E−06 Molar
[10]
  GI50: 1.79 µM
  TGI IGROV-ET: 2.97E−06 Molar
  CC50: 4.93 µM
[11]
  GI50: 1.75 µM
  TGI HELA: 2.98E−06 Molar
  CC50: 5.07 µM
[12]
  GI50: 3.02 µM
  TGI HELA-APL: 6.01E−06 Molar
  CC50: 6.9 µM
[13]
  GI50: 3.19 µM
  TGI K-562: 5.46E−06 Molar
  CC50: 6.9 µM
[14]
  GI50: 4.67 µM
  TGI PANC-1: 6.90E−06 Molar
  CC50: 6.9 µM

## C/C=C1\NC(=O)[C@H](Cc2ccccc2)NC(=O)[C@@H](C(C)C)NC(=O)[C@@H]([C@@H](C)CC)NC(=O)[C@H](NC(=O)[C@H](NC(=O)[C@H](CCCN)NC(=O)[C@H]2CCCN2C(=O)[C@H](NC(=O)[C@@H](NC(=O)[C@@H](NC(=O)[C@H](NC(=O)CCCC(C)C)C(C)C)C(C)C)C(C)C)C(C)C)[C@@H](C)CC)[C@@H](C)OC(=O)[C@H](C(C)C)NC1=O [Compound 6, [Val^12]-KF] ({Hexanoyl(5-Me)}-[dV]VV[dV][dP][Orn][d(aIle)][d(aThr)][d(aIle)][dV]F[Dhb]V; ester 8-C)
[1]
  TGI A-549: 8.54E−07 Molar
  GI50: 0.257 µM
  CC50: 2.36 µM
[2]
  GI50: 0.175 µM
  TGI MEL-28: 2.94E−07 Molar
  CC50: 0.492 µM
[3]
  TGI HT-29: 2.68E−07 Molar
  GI50: 0.148 µM
  CC50: 0.485 µM
[4]
  GI50: 0.133 µM
  TGI LOVO: 2.48E−07 Molar
  CC50: 0.463 µM
[5]
  GI50: 0.159 µM
  TGI LOVO-DOX: 2.83E−07 Molar
  CC50: 0.503 µM
[6]
  GI50: 0.165 µM
  LC50 (concentration causing 50% net cell kill): 0.523 µM
  TGI DU-145: 2.94E−07 Molar
[7]
  TGI LN-caP: 1.00E−06 Molar
  GI50: 0.313 µM
  CC50: 2.78 µM
[8]
  GI50: 0.102 µM
  LC50: 0.482 µM
  TGI SK-BR-3: 2.22E−07 Molar
[9]
  GI50: 0.15 µM
  LC50 (concentration causing 50% net cell killing): 0.598 µM
  TGI IGROV: 2.99E−07 Molar
[10]
  GI50: 0.154 µM
  TGI IGROV-ET: 2.91E−07 Molar
  CC50: 0.549 µM
[11]
  GI50: 0.144 µM
  TGI HELA: 2.63E−07 Molar
  CC50: 0.48 µM
[12]
  GI50: 0.379 µM
  TGI HELA-APL: 1.04E−06 Molar
  CC50: 3.11 µM
[13]
  GI50: 0.661 µM
  TGI K-562: 1.44E−06 Molar
  CC50: 3.07 µM
[14]
  GI50: 1.02 µM
  TGI PANC-1: 1.96E−06 Molar
  CC50: 3.8 µM
